Measured values as given in paper PMC7777204, “Locking mixed-lineage kinase domain-like protein in its auto-inhibited state prevents necroptosis” (Proceedings of the National Academy of Sciences of the …, 2020).

What was measured:
Jurkat FADD−/− cells [1] = assay: Jurkat FADD−/− cytotox assay; type: cell-based; conditions: Homo sapiens, without huTNFα, Cell Titer Glo viability, read-out: Jurkat TOX IC50
Experimental: (§1) For the Jurkat FADD^−/− Necroptosis assay, compounds were serially diluted in 100% dimethyl sulfoxide (DMSO) (Sigma-Aldrich catalog no. 41641), and 250 nL was transferred to a sterile 384-well microtiter plate (PerkinElmer catalog no. 6007688) via Echo liquid handler (LABCYTE). Five thousand Jurkat FADD ^−/− cells (ATCC catalog no. CRL-2572) in 20 µL of modified Roswell Park Memorial Institute medium (Gibco catalog no. 10491), 10% fetal calf serum (Gibco catalog no. 100500), 1x Anti/Anti (Gibco catalog no. 15240-062), 1x L-Glutamax (Gibco catalog no. 35050-087), and 1% PenStrep (SIGMA catalog no. P4333) were seeded into each well of the prepared assay plate with compound. Cells and compounds were incubated for 30 min at 37 °C (humidified incubator with 5% CO2). After incubation, 5 µL of recombinant human TNFα (huTNFα) (Biotrend catalog no. cyt-223; 10 ng/mL final concentration [f.c.]) was added to the cells, followed by an incubation of 24 h at 37 °C. Following the incubation, the experimental plates were equilibrated to room temperature (30 min) before 25 µL of Cell Titer Glo Luminescent Cell Viability Assay System reagent (Promega catalog no. G7571) was added to the plate wells, incubated at room temperature for ∼10 min. After incubation, the samples were analyzed for luminescence by using an Envision reader (PerkinElmer).
(§2) MLKL antagonists were tested in cytotox assays by using Jurkat FADD^−/− and U937 cells according to the assay procedures described for the necroptosis assays, but without treatment with recombinant huTNFα and/or zVAD-fmk. High controls (100% CTL, no effect) were defined as cells treated with DMSO, and low controls (0% CTL) were defined as medium without cells (0% CTL, maximal effect).
(§3) All cellular assays were done for Cpd 1, Cpd 2, Cpd 3, Cpd 4, and Cpd 5 in duplicate and in quadruplet for NSA.

U937 cells [2] = assay: U937 apoptosis assay; type: cell-based; conditions: Homo sapiens, U-937, 100 ng/mL huTNFα plus 3 µM NSA, read-out: U937 APOP IC50
Experimental: (§4) MLKL antagonists were also evaluated in a necroptosis assay with U937 cells ([26]) (ATCC catalog no. CRL-1593.2). The assay procedure with U937 cells was as described for the Jurakt FADD^−/− necroptosis assay with the following modifications: 8,000 cells were seeded per well, and, in addition to the recombinant huTNFα, cells were also incubated in the presence of 10 µM (f.c.) carbobenzoxy-valyl-alanyl-aspartyl-[O-methyl]-fluoromethylketone (zVAD-fmk) (Enzo Life Sciences catalog no. ALX-260-020). Low controls (0% CTL) were defined as cells treated with 100 ng/mL recombinant huTNFα plus 10 µM zVAD-fmk.
Furthermore, MLKL antagonists were tested in a U937 apoptosis assay in the presence of 3 µM (f.c.) NSA (Tocris catalog no. 5025) and 100 ng/mL (f.c.) recombinant huTNFα in the same way as described for the U937 necroptosis assay. Low controls (0% CTL) were defined as cells treated with 100 ng/mL recombinant huTNFα plus 3 µM NSA.
as §3

C86S-mutated MLKL = conditions: cited from earlier work
U937 cells [3] = assay: U937 necroptosis assay; type: cell-based; conditions: Homo sapiens, U-937, huTNFα plus 10 µM zVAD-fmk, read-out: U937 NEC IC50
Experimental: as §1
(§5) Each assay plate contained wells with “high” and “low” controls. High controls (100% CTL) were defined as cells treated with DMSO, and low controls (0% CTL) were defined as cells treated with 10 ng/mL recombinant huTNFα. IC50 values were calculated based on the percentage of control values using a four-parameter-fitting model.
as §4, §3

Jurkat FADD−/− cells [4] = assay: Jurkat FADD−/− necroptosis assay; type: cell-based; conditions: Homo sapiens, 10 ng/mL huTNFα, 24 h, Cell Titer Glo viability, read-out: Jurkat NEC IC50
Experimental: as §1, §5, §3

[5] = target: T1, human MLKL executioner domain (WT) (Homo sapiens, UniProt Q8NB16); assay: Functional NMR assay (detachment of α-helix 6), WT; type: biochemical; conditions: for Inhibitory effect on MLKL activation (α-helix 6 detachment), in words: 12 mM NM + 500 µM IP6 + 500 µM xanthine compound, compared with Cpd 3 (Fig. 3C); for Population of the activated state (pact), α-helix 6 detached: 12 mM NM alone or 500 µM IP6 alone
T1 construct: 80 µM MLKL N-terminal executioner domain (residues 1 to 154) was used; GST (thrombin cleavage site) (cleaved yes)
T1 sequence (Q8NB16 1-154): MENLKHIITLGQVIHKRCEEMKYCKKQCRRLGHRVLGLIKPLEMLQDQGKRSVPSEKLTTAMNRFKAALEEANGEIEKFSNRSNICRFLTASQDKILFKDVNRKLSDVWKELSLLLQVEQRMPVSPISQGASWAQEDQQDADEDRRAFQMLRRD
Text: To test the significance of the additional interaction between α-helix 6 and the four-helix bundle provided by the xanthine compounds stacking to the phenyl ring of Phe148, we used a described functional NMR assay ([12]). Binding of phytic acid (IP6) and the detergent β-D-nonylmaltoside (NM) led to the detachment of α-helix 6, which can be monitored in ^1H,^15N-correlation spectra by the altered chemical shift of the Hε1–Nε1 correlation of Trp133 and the backbone N–H correlation of Ala141 ([12]). […] Adding 12 mM NM or 500 µM IP6 led to the appearance of a second very weak peak reporting on the detached α-helix 6 with a population of the activated state (pact) of 1% and 4%, respectively (Fig. 3). […] Combining 12 mM NM and 500 µM IP6 induced a dramatic increase of the population of the detached state (pact 86%). […] To further validate the importance of the π–π stacking interaction between the xanthine and Phe148 in α-helix 6, we carried out the functional NMR assay with the F148A-mutated variant of MLKL. The removal of the phenyl group induced significant CSPs localized in close proximity to the mutation site, due to the removal of ring currents and, therefore, strong electronic changes. […] MLKL F148A was more sensitive to the addition of 12 mM NM, 500 µM IP6, or the combination thereof. In the spectra in the presence of NM and the combination of NM and IP6, a third Trp133 peak appeared, most likely reporting on a state similar to the active state. […] Thus, the stacking interaction of the xanthine core to Phe148 is vital for the inhibitory activity of these MLKL inhibitors.
Fig. 3. (A and B) The region of the NMR ^1H,^15N-correlation spectra of the MLKL executioner domain (protein concentration: 80 µM) containing the cross-peaks of Trp133 Nε1–Hε1 in the auto-inhibited state where α-helix 6 is attached to the four-helix bundle (inact. state) and in the active, detached state (act. state) are shown. The unliganded state is depicted in black, with 12 mM NM in cyan; 500 µM IP6 in orange; 500 µM Cpd 3 in blue; 12 mM NM and 500 µM IP6 in red; and 12 mM NM, 500 µM IP6, and 500 µM Cpd 3 in green. The spectra depicted in A are measured with the WT protein and in B with the F148A variant. […] Dark gray bars correspond to the WT, while light gray bars correspond to the F148A variant. The asterisk means that no active conformation could be detected. Double asterisks indicate data not determined.
For the functional NMR assay ^1H,^15N-correlation spectra were recorded on a Bruker Avance III HD 600-MHz NMR spectrometer equipped with a cryogenic QCI probe in 2.5-mm NMR tubes at 298 K. Spectra were recorded with 64 complex points in the indirect dimension, 96 scans, and an interscan delay of 2 s. For the samples, 80 µM MLKL N-terminal executioner domain (residues 1 to 154) was used in a 20 mM sodium phosphate buffer at pH 7.5 containing 150 mM sodium chloride and 1 mM TCEP. For the different conditions, either 500 µM IP6, 12 mM NM, or a combination of the two were used. The xanthine compounds were tested at 500 µM, while NSA, due to limited solubility, was tested only at 200 µM, which is sufficient to saturate MLKL. Spectra were analyzed, and peaks were integrated in CcpNnmr analysis ([39]).

U937 cells [6] = assay: U937 cytotox assay; type: cell-based; conditions: Homo sapiens, U-937, without huTNFα and zVAD-fmk, read-out: U937 TOX IC50
Experimental: as §4, §2, §3

Structure (SMILES) | IC50 (Jurkat FADD−/− cells [1]) [µM] | IC50 (U937 cells [2]) [µM] | Activity in MLKL knockout cells transfected with C86S-mutated MLKL (C86S-mutated MLKL) | IC50 (U937 cells [3]) [µM] | IC50 (Jurkat FADD−/− cells [4]) [µM] | Inhibitory effect on MLKL activation (α-helix 6 detachment), in words ([5]; WT) | IC50 (U937 cells [6]) [µM] | Population of the activated state (pact), α-helix 6 detached ([5]; WT) [%] | Effect on α-helix 6 detachment, in words ([5]; WT MLKL:NSA complex (200 µM NSA), addition of 12 mM NM and 500 µM IP6) | Induction of the active state by compound alone ([5]; WT, compound alone (Cpd 3 500 µM, NSA 200 µM), no NM/IP6)
Cn1c(=O)c2c(nc(S(C)(=O)=O)n2C)n(C)c1=O [Cpd 1] | 56.3 | > 100 | hampered | 0.312 | 0.574 | even less activated | > 100 |  |  | 
COCCOCn1c(S(C)(=O)=O)nc2c1c(=O)n(C)c(=O)n2C [Cpd 2] | 3.83 | > 100 | hampered | 0.042 | 0.069 | even less activated | 4.38 |  |  | 
Cn1c(=O)c2c(nc([S+](C)[O-])n2C)n(C)c1=O (centres unmarked) [Cpd 4] | > 100 | > 100 |  | 3.17 | 5.24 | significantly reduced | > 100 |  |  | 
CSc1nc2c(c(=O)n(C)c(=O)n2C)n1C [Cpd 5] | > 100 | > 100 |  | > 100 | > 100 | abolished | > 100 |  |  | 
O=P(O)(O)O[C@H]1[C@H](OP(=O)(O)O)[C@@H](OP(=O)(O)O)[C@H](OP(=O)(O)O)[C@@H](OP(=O)(O)O)[C@H]1OP(=O)(O)O [IP6, phytic acid] |  |  |  |  |  |  |  | 4 |  | 
CCCCCCCCCO[C@@H]1O[C@H](CO)[C@@H](O[C@H]2O[C@H](CO)[C@@H](O)[C@H](O)[C@H]2O)[C@H](O)[C@H]1O [NM, β-D-nonylmaltoside] |  |  |  |  |  |  |  | 1 |  | 
COc1nccnc1NS(=O)(=O)c1ccc(NC(=O)/C=C/c2ccc([N+](=O)[O-])s2)cc1 [NSA, Necrosulfonamide] | 6.2 | > 100 |  | 0.454 | 1.4 |  | 14.7 |  | complete population shift to the active α-helix detached state | α-helix 6 remains in the attached auto-inhibitory state
